Calls of active or inactive are those of the source. No cut-off for these calls is given here.
Key:
[1] = molecular target: T1, Purine nucleoside phosphorylase (Homo sapiens) (UniProt P00491); assay: Inhibitory activity against purine nucleoside phosphorylase at a concentration of 6 mM; NA = No activity
T1 sequence (whole entry): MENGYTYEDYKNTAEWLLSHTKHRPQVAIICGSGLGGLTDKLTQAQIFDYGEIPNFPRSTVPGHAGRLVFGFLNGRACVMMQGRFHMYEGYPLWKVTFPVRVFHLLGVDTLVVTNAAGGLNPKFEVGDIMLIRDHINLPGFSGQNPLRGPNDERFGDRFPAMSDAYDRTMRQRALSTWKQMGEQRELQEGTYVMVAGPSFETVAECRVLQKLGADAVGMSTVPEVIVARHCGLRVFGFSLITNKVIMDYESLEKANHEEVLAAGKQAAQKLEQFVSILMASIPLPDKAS

[2] = Inhibitory activity against uridine phosphorylase at a concentration of 4 mM by using 5-fluorouracil and ribose 1-phosphate as substrates; NI = No inhibition

SMILES: O=P(O)(O)C[C@@H]1O[C@H](CO)[C@@H](O)[C@H]1O
- inhibition [1]: inactive

SMILES: O=P(O)(O)C[C@H]1O[C@H](CO)[C@@H](O)[C@H]1O
- inhibition [2]: inactive
- inhibition [1]: inactive
